PubChem BioAssay AID2060616 (Molecular Pharmacology Branch, DTP, NCI, 2025)

Test system: 377384-186-R-J1-PDC complex spheroid viability
Experiment: Anticancer human tumor 377384-186-R-J1-PDC patient-derived pancreatic carcinoma cell line growth inhibition [CLK]
Conditions: for IC50: curve of first compound; for viability, T/C: stronger effect = lower value
Method in brief: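 Patient-derived tumor cells grown as complex spheroids with HUVEC endothelial cells and mesenchymal stem cells, treated with drug combinations. Concentrations descend in half-log steps from near clinical Cmax, or from 10 microM if Cmax unknown.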
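Note: spheroids exposed to agents for 7 days before reading.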
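Throughout, for viability, T/C: luminescence signal used as a stand-in for viable cells.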

CC(C)CC(NC(=O)C(Cc1ccccc1)NC(=O)c1cnccn1)B(O)O (centres undefined) + CN1CCN(c2cc(C(=O)Nc3cc4cc(-c5cnn(C)c5)ccc4cn3)ccn2)CC1
IC50 (second compound 0.0316 µM): 1.66 nM
IC50 (second compound 0.1 µM): 1.65 nM
IC50 (second compound 0.316 µM): < 0.949 nM
IC50 (second compound 1 µM): < 0.949 nM
IC50 (second compound 3.16 µM): < 0.949 nM
IC50 (second compound 10 µM): < 0.949 nM
viability, T/C (second compound 0.0316 µM, first compound 0.000949 µM): 95.5%
viability, T/C (second compound 0.0316 µM, first compound 0.003 µM): 2.33%
viability, T/C (second compound 0.0316 µM, first compound 0.00949 µM): 0.36%
viability, T/C (second compound 0.0316 µM, first compound 0.03 µM): 0.23%
viability, T/C (second compound 0.0316 µM, first compound 0.0949 µM): 0.25%
viability, T/C (second compound 0.0316 µM, first compound 0.3 µM): 0.18%
viability, T/C (second compound 0.1 µM, first compound 0.000949 µM): 94.8%
viability, T/C (second compound 0.1 µM, first compound 0.003 µM): 1.28%
viability, T/C (second compound 0.1 µM, first compound 0.00949 µM): 0.36%
viability, T/C (second compound 0.1 µM, first compound 0.03 µM): 0.22%
viability, T/C (second compound 0.1 µM, first compound 0.0949 µM): 0.23%
viability, T/C (second compound 0.1 µM, first compound 0.3 µM): 0.22%
viability, T/C (second compound 0.316 µM, first compound 0.000949 µM): 22.2%
viability, T/C (second compound 0.316 µM, first compound 0.003 µM): 1.48%
viability, T/C (second compound 0.316 µM, first compound 0.00949 µM): 0.19%
viability, T/C (second compound 0.316 µM, first compound 0.03 µM): 0.21%
viability, T/C (second compound 0.316 µM, first compound 0.0949 µM): 0.28%
viability, T/C (second compound 0.316 µM, first compound 0.3 µM): 2.08%
viability, T/C (second compound 1 µM, first compound 0.000949 µM): 0.64%
viability, T/C (second compound 1 µM, first compound 0.003 µM): 0.47%
viability, T/C (second compound 1 µM, first compound 0.00949 µM): 0.35%
viability, T/C (second compound 1 µM, first compound 0.03 µM): 0.22%
viability, T/C (second compound 1 µM, first compound 0.0949 µM): 0.4%
viability, T/C (second compound 1 µM, first compound 0.3 µM): 0.32%
viability, T/C (second compound 3.16 µM, first compound 0.000949 µM): 1.01%
viability, T/C (second compound 3.16 µM, first compound 0.003 µM): 1.51%
viability, T/C (second compound 3.16 µM, first compound 0.00949 µM): 0.92%
viability, T/C (second compound 3.16 µM, first compound 0.03 µM): 0.56%
viability, T/C (second compound 3.16 µM, first compound 0.0949 µM): 0.48%
viability, T/C (second compound 3.16 µM, first compound 0.3 µM): 1.78%
viability, T/C (second compound 10 µM, first compound 0.000949 µM): 0.25%
viability, T/C (second compound 10 µM, first compound 0.003 µM): 0.32%
viability, T/C (second compound 10 µM, first compound 0.00949 µM): 0.24%
viability, T/C (second compound 10 µM, first compound 0.03 µM): 0.24%
viability, T/C (second compound 10 µM, first compound 0.0949 µM): 0.43%
viability, T/C (second compound 10 µM, first compound 0.3 µM): 1.64%

CC1(C)CCC(CN2CCN(c3ccc(C(=O)NS(=O)(=O)c4ccc(NCC5CCOCC5)c([N+](=O)[O-])c4)c(Oc4cnc5[nH]ccc5c4)c3)CC2)=C(c2ccc(Cl)cc2)C1 + CN1CCN(c2cc(C(=O)Nc3cc4cc(-c5cnn(C)c5)ccc4cn3)ccn2)CC1
IC50 (second compound 0.0316 µM): 5530 nM
IC50 (second compound 0.1 µM): 5250 nM
IC50 (second compound 0.316 µM): < 31.6 nM
IC50 (second compound 1 µM): < 31.6 nM
IC50 (second compound 3.16 µM): < 31.6 nM
IC50 (second compound 10 µM): < 31.6 nM
viability, T/C (second compound 0.0316 µM, first compound 0.0316 µM): 96%
viability, T/C (second compound 0.0316 µM, first compound 0.1 µM): 97.6%
viability, T/C (second compound 0.0316 µM, first compound 0.316 µM): 102%
viability, T/C (second compound 0.0316 µM, first compound 1 µM): 115%
viability, T/C (second compound 0.0316 µM, first compound 3.16 µM): 89.7%
viability, T/C (second compound 0.0316 µM, first compound 10 µM): 8.02%
viability, T/C (second compound 0.1 µM, first compound 0.0316 µM): 95.7%
viability, T/C (second compound 0.1 µM, first compound 0.1 µM): 101%
viability, T/C (second compound 0.1 µM, first compound 0.316 µM): 89.8%
viability, T/C (second compound 0.1 µM, first compound 1 µM): 92.7%
viability, T/C (second compound 0.1 µM, first compound 3.16 µM): 83.8%
viability, T/C (second compound 0.1 µM, first compound 10 µM): 7.17%
viability, T/C (second compound 0.316 µM, first compound 0.0316 µM): 24.6%
viability, T/C (second compound 0.316 µM, first compound 0.1 µM): 27.9%
viability, T/C (second compound 0.316 µM, first compound 0.316 µM): 27.9%
viability, T/C (second compound 0.316 µM, first compound 1 µM): 21.6%
viability, T/C (second compound 0.316 µM, first compound 3.16 µM): 20.4%
viability, T/C (second compound 0.316 µM, first compound 10 µM): 3.98%
viability, T/C (second compound 1 µM, first compound 0.0316 µM): 1.15%
viability, T/C (second compound 1 µM, first compound 0.1 µM): 1.09%
viability, T/C (second compound 1 µM, first compound 0.316 µM): 1.14%
viability, T/C (second compound 1 µM, first compound 1 µM): 1.04%
viability, T/C (second compound 1 µM, first compound 3.16 µM): 1.22%
viability, T/C (second compound 1 µM, first compound 10 µM): 1.79%
viability, T/C (second compound 3.16 µM, first compound 0.0316 µM): 0.38%
viability, T/C (second compound 3.16 µM, first compound 0.1 µM): 0.8%
viability, T/C (second compound 3.16 µM, first compound 0.316 µM): 0.43%
viability, T/C (second compound 3.16 µM, first compound 1 µM): 0.54%
viability, T/C (second compound 3.16 µM, first compound 3.16 µM): 1.02%
viability, T/C (second compound 3.16 µM, first compound 10 µM): 1.42%
viability, T/C (second compound 10 µM, first compound 0.0316 µM): 0.41%
viability, T/C (second compound 10 µM, first compound 0.1 µM): 0.46%
viability, T/C (second compound 10 µM, first compound 0.316 µM): 0.55%
viability, T/C (second compound 10 µM, first compound 1 µM): 0.59%
viability, T/C (second compound 10 µM, first compound 3.16 µM): 0.61%
viability, T/C (second compound 10 µM, first compound 10 µM): 0.95%
